Experimental data taken from publication PMC13266999, “Designing Antibiotics with Inherent Resistance to Efflux as a Strategy to Revive Discovery against Multidrug-Resistant Pathogens” (Journal of Medicinal Chemistry, 2026).
Like-named read-outs stand apart in the source and are kept apart here.

Experiments:
[1] = test system: S. dysgalactiae; experiment: MIC (microbroth dilution); assay type: cell-based; conditions: for MIC: Streptococcus dysgalactiae
Method in brief: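 Microbroth dilution in tryptic soy broth; Streptococcus spp. in cation-adjusted Mueller Hinton broth with 2.5% lysed horse blood, inocula from overnight stationary-phase cultures. MIC is lowest concentration without visible growth, OD600 read. Parallel MICs run with 30 μg/mL polymyxin B nonapeptide (final) as outer-membrane permeabilizer.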

[2] = test system: S. aureus; experiment: MIC (microbroth dilution); assay type: cell-based, Staphylococcus aureus
Method in brief: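 Overnight stationary-phase cultures back-diluted and tested by broth microdilution with 2-fold compound series. MIC is lowest concentration with no visible growth, with OD600 also read. Separate runs included polymyxin B nonapeptide at 30 μg/mL final as outer-membrane permeabilizer.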

[3] = molecular target: T1, WT DNA gyrase (Staphylococcus aureus, UniProt P0A0K8+P20831); experiment: DNA gyrase supercoiling inhibition assay; assay type: biochemical, S. aureus
T1 construct: purchased Inspiralis Ltd. (Norwich, UK)
Protocol: (§1) Gyrase inhibition was determined through biochemical assay kits from Inspiralis Ltd. (Norwich, UK), according to manufacturer’s instructions, and as described previously. Briefly, 1U of enzyme was incubated with 0.5 μg of relaxed […] DNA in the presence of compound in 1% DMSO for 30 min at 37 °C. A control reaction contained no compound but still contained 1% DMSO. The reactions were stopped through Stop Buffer addition and the DNA separated through addition of chloroform/iso-amyl alcohol (24;1). Samples were run on a 1% agarose gel at 75 V for 2 h, which was then stained with 1 μg/mL ethidium bromide and visualized using a NuGenius gel imager (Syngene). The intensity of the supercoiled DNA band was quantified using Syngene software, and the inhibition of the supercoiling of the DNA by the compounds was calculated.

[4] = molecular target: T2, GyrA S84L mutant DNA gyrase (Staphylococcus aureus, UniProt P0A0K8+P20831, S84L); experiment: DNA gyrase supercoiling inhibition assay; assay type: biochemical, S. aureus
T2 construct: purchased Inspiralis Ltd. (Norwich, UK)
Protocol: as §1

[5] = test system: S. pyogenes; experiment: MIC (microbroth dilution); assay type: cell-based, Streptococcus pyogenes; conditions: for MIC: Streptococcus pyogenes
Protocol: All bacteria were maintained on tryptic soy agar (TSA), except Streptococcus spp., which were maintained on Columbia agar plates containing 5% horse blood. All bacterial assays were carried out in tryptic soy broth (TSB), except for Streptococcus spp. which were grown in cation-adjusted Mueller Hinton broth containing 2.5% lysed horse blood. Bacteria were grown to stationary phase in liquid culture overnight, with shaking at 200 rpm, before being back diluted to the relevant starting concentration for each assay below. MICs were measured by the microbroth dilution method. […] Absorbance at OD600 was read on a CLARIOstar spectrophotometer (BMG Labtech) and the MIC was defined as the minimum concentration of compound where no visible growth was detected. The compounds were prepared as a DMSO stock and equivalent concentrations of DMSO had no effect on bacterial growth. MICs were also performed in the presence of the outer membrane permeator, polymyxin b nonapeptide (PMBN) following the same MIC method but with the following variation. The 2-fold dilution series of compound was prepared as above, then 50 μL of PMBN at a final concentration of 30 μg/mL was added to relevant wells, while 50 μL/well of blank media was added to the remaining wells. Bacteria were then added at 50 μL/well for a starting concentration as above. Thirty μg/mL of PMBN had no effect on bacterial growth. The MICs were read and defined as above. All animal procedures were performed by the contract research organization Pharmacology Discovery Services Taiwan in accordance with the Guide for the Care and Use of Laboratory Animals. The procedures were approved by the Institutional Ethics Committee of Pharmacology Discovery Services Taiwan, Ltd. (approval no. AB127662), in compliance with animal welfare legislation in Taiwan.

Cc1cc(C)nc(N[C@@H]2CCN(c3c(F)cc4c(=O)c(C(=O)O)cn5c4c3OC[C@@H]5C)C2)n1 [Compound 50, (S)-10-((R)-3-((4,6-Dimethylpyrimidin-2-yl)amino)pyrrolidin-1-yl)-9-fluoro-3-methyl-7-oxo-2,3-dihydro-7H-[1,4]oxazino[2,3,4-ij]quinoline-6-carboxylic acid]
≤ 0.0312 µg/mL: MIC ([2]; Staphylococcus aureus, majority of MSSA and MRSA isolates, read-out: MIC)
≤ 0.004 µg/mL: MIC ([2]; Staphylococcus aureus, ATCC9144, ATCC 9144, read-out: MIC)
≤ 0.03 µg/mL: MIC ([1]; 10238, read-out: MIC) | MIC ([1]; 13759, read-out: MIC) | MIC ([1]; 13762, read-out: MIC) | MIC ([1]; 81251, read-out: MIC) | MIC ([1]; 84557, read-out: MIC) | MIC ([1]; n = 8, read-out: modal MIC) | MIC ([5]; 8198, read-out: MIC) | MIC ([5]; 12048, read-out: MIC) | MIC ([5]; 13736, read-out: MIC) | MIC ([5]; 80661, read-out: MIC) | MIC ([5]; 82434, read-out: MIC) | MIC ([5]; 82896, read-out: MIC) | MIC ([5]; 83581, read-out: MIC) | MIC ([5]; 84285, read-out: MIC) | MIC ([5]; n = 12 isolates, read-out: modal MIC)
2 µg/mL: MIC ([2]; Staphylococcus aureus, MRSA / NRS 269, TGC-NS MRSA (NRS269), read-out: MIC) | MIC ([2]; Staphylococcus aureus, MRSA / VISA, MRSA VISA (Mu50), read-out: MIC) | MIC ([2]; Staphylococcus aureus, NCTC13616, NCTC 13616, + 4% albumin, read-out: MIC) | MIC ([2]; Staphylococcus aureus, VanA (VRS11b), read-out: MIC)
5.56 µM: IC50 [3]
4 µg/mL: MIC ([2]; Staphylococcus aureus, MRSA / NRS 22 / USA600, USA600 MRSA GISA (NRS22), read-out: MIC) | MIC ([2]; Staphylococcus aureus, MRSA / NRS 127, LZD-NS MRSA (NRS127), read-out: MIC) | MIC ([2]; Staphylococcus aureus, MRSA / VISA, MRSA VISA (CDC #0219), read-out: MIC) | MIC ([2]; Staphylococcus aureus, NCTC13277, NCTC 13277, + 4% albumin, read-out: MIC)
no difference: fold difference in MIC, SA-1199B vs SA-1199 ([2]; NorA-overexpressing vs WT)
1 µg/mL: MIC ([2]; Staphylococcus aureus, ATCC29213, ATCC 29213 + 50% serum, read-out: MIC) | MIC ([2]; Staphylococcus aureus, MRSA / NRS 17 / VISA, VISA MRSA (NRS17), read-out: MIC) | MIC ([2]; Staphylococcus aureus, MRSA / NRS 71, MRSA (NRS71), read-out: MIC) | MIC ([2]; Staphylococcus aureus, MRSA / NRS 119, MRSA Linezolid-R (NRS119), read-out: MIC) | MIC ([2]; Staphylococcus aureus, MRSA / NRS 383 / USA200, USA200 MRSA (NRS383), read-out: MIC) | MIC ([2]; Staphylococcus aureus, MRSA / NRS 402 / VISA, VISA DAP-NS MRSA (NRS402), read-out: MIC) | MIC ([2]; Staphylococcus aureus, MRSA / VISA, MRSA VISA (CDC #0220), read-out: MIC) | MIC ([2]; Staphylococcus aureus, MRSA / VISA, MRSA VISA (CDC #0223), read-out: MIC) | MIC ([2]; Staphylococcus aureus, MRSA / VISA, MRSA VISA (CDC #0225), read-out: MIC) | MIC ([2]; Staphylococcus aureus, MRSA / VISA, MRSA VISA (CDC #0227), read-out: MIC) | MIC ([2]; Staphylococcus aureus, MRSA / VISA, MRSA VISA (CDC AR-BANK #0217), read-out: MIC) | MIC ([2]; Staphylococcus aureus, MRSA / VISA, MRSA VISA Mupirocin-R (CDC #0218), read-out: MIC) | MIC ([2]; Staphylococcus aureus, MRSA, VanA MRSA (VRS1), read-out: MIC) | MIC ([2]; Staphylococcus aureus, NRS 56 / VISA, VISA (NRS56), read-out: MIC)
16 µg/mL: MIC ([2]; Staphylococcus aureus, MRSA / VISA, MRSA VISA (CDC AR-BANK #0215), read-out: MIC)
≤ 0.03 to 0.125 µg/mL: MIC range ([1]; n = 8) | MIC range ([5]; n = 12 isolates)
0.5 µg/mL: MIC ([2]; Staphylococcus aureus, MRSA / NRS 271, Linezolid-R MRSA (NRS271), read-out: MIC) | MIC ([2]; Staphylococcus aureus, MRSA / NRS 382 / USA100, USA100 MRSA (NRS382), read-out: MIC) | MIC ([2]; Staphylococcus aureus, MRSA / NRS 385 / USA500, USA500 MRSA (NRS385), read-out: MIC) | MIC ([2]; Staphylococcus aureus, MRSA / USA300, USA300 MRSA (FPR3757), read-out: MIC) | MIC ([2]; Staphylococcus aureus, MRSA / VISA, MRSA VISA (CDC #0221), read-out: MIC) | MIC ([2]; Staphylococcus aureus, MRSA / VISA, MRSA VISA (CDC AR-BANK #0216), read-out: MIC) | MIC ([2]; Staphylococcus aureus, MRSA, VanA MRSA (VRS2), read-out: MIC) | MIC ([2]; Staphylococcus aureus, MRSA, VanA MRSA (VRS3a), read-out: MIC) | MIC ([2]; Staphylococcus aureus, NRS 3 / VISA, VISA (NRS3), read-out: MIC) | MIC ([2]; Staphylococcus aureus, VRSA, VRSA (ECL 2963646), read-out: MIC)
0.016 µg/mL: MIC ([2]; Staphylococcus aureus, SA-1199, read-out: MIC) | MIC ([2]; Staphylococcus aureus, SA-1199B (NorA-overexpressing))
0.03 µg/mL: MIC ([2]; Staphylococcus aureus, ATCC6538P, ATCC 6538P, read-out: MIC) | MIC ([2]; Staphylococcus aureus, ATCC10390, ATCC 10390, read-out: MIC) | MIC ([2]; Staphylococcus aureus, ATCC13709, ATCC 13709, read-out: MIC) | MIC ([2]; Staphylococcus aureus, ATCC19636, Smith, ATCC 19636, read-out: MIC) | MIC ([2]; Staphylococcus aureus, ATCC27660, ATCC 27660, read-out: MIC) | MIC ([2]; Staphylococcus aureus, ATCC29213, ATCC 29213, read-out: MIC) | MIC ([2]; Staphylococcus aureus, ATCC 33591 / MRSA, MRSA (ATCC 33591), read-out: MIC) | MIC ([2]; Staphylococcus aureus, ATCC 33592 / MRSA, MRSA (ATCC 33592), read-out: MIC) | MIC ([2]; Staphylococcus aureus, ATCC33594, ATCC 33594, read-out: MIC) | MIC ([2]; Staphylococcus aureus, ATCC49230, ATCC 49230, read-out: MIC) | MIC ([2]; Staphylococcus aureus, MRSA / NRS 100, MRSA (COL; NRS100), read-out: MIC) | MIC ([2]; Staphylococcus aureus, MRSA / NRS 123 / USA400, USA400 MRSA (NRS123), read-out: MIC) | MIC ([2]; Staphylococcus aureus, MRSA / NRS 384 / USA300, USA300 MRSA (NRS384), read-out: MIC) | MIC ([2]; Staphylococcus aureus, MRSA / NRS 387 / USA800, USA800 MRSA (NRS387), read-out: MIC) | MIC ([2]; Staphylococcus aureus, MRSA / NRS 483, USA1000 MRSA (NRS483), read-out: MIC) | MIC ([2]; Staphylococcus aureus, MRSA / NRS 484, USA1100 MRSA (NRS484), read-out: MIC) | MIC ([2]; Staphylococcus aureus, MRSA / USA300, USA300 MRSA (TCH1516), read-out: MIC) | MIC ([2]; Staphylococcus aureus, MRSA / USA400, USA400 MRSA (MW2), read-out: MIC) | MIC ([2]; Staphylococcus aureus, MRSA / VISA, MRSA VISA (CDC #0226), read-out: MIC) | MIC ([2]; Staphylococcus aureus, MSSA / VISA, MSSA VISA (CDC #0222), read-out: MIC) | MIC ([2]; Staphylococcus aureus, NRS72, Sanger-476, NRS72, read-out: MIC) | MIC ([2]; Staphylococcus aureus, NRS157, NRS157, read-out: MIC)
8.38 µM: IC50 [4]
2- to 8 fold: fold increase in MIC in the presence of 4% albumin ([2]; across the strain panel)
2–8 fold: fold improvement in activity compared to 46 [2]
0.125 µg/mL: MIC [1]; 81553 | MIC ([2]; Staphylococcus aureus, 1199b, + 4% albumin, read-out: MIC) | MIC ([2]; Staphylococcus aureus, ATCC9144, ATCC 9144, + 4% albumin, read-out: MIC) | MIC [5]; 13737 | MIC [5]; 13738 | MIC ([5]; ATCC14289, ATCC 14289) | MIC ([5]; ATCC19615, ATCC 19615)
0.25 µg/mL: MIC ([2]; Staphylococcus aureus, MRSA / NRS 386 / USA700, USA700 MRSA (NRS386), read-out: MIC) | MIC ([2]; Staphylococcus aureus, MRSA, MRSA DAP-NS (ECL 2963621), read-out: MIC)
0.06 µg/mL: MIC ([1]; 84143, read-out: MIC) | MIC ([1]; 84574, read-out: MIC) | MIC ([2]; Staphylococcus aureus, 1199, + 4% albumin, read-out: MIC) | MIC ([2]; Staphylococcus aureus, NRS 12 / VISA, VISA (NRS12), read-out: MIC) | MIC ([5]; 81017, read-out: MIC) | MIC ([5]; 86519, read-out: MIC)
